The values that follow come from ChEMBL document CHEMBL5505992, “Novel membrane-targeting isoxanthohumol-amine conjugates for combating methicillin-resistant Staphylococcus aureus (MRSA) infections” (Eur J Med Chem, 2024).

A short description of data set [1]: Toxicity in Kunming mouse assessed as effect on liver at 10 mg/kg, sc measured after 24 hrs by H and E staining based analysis. Format: organism-based. The settings on record: in vivo.
Data set [2] relates to Staphylococcus aureus. The data set can be described thus: Antibacterial activity against methicillin-resistant Staphylococcus aureus clinical isolate MRSA-16 measured after 16 to 18 hrs by CLSI method. The class given is functional. The settings on record: time 16-18 hrs.
Data set [3] can be described thus: Toxicity in Kunming mouse assessed as effect on heart at 10 mg/kg, sc measured after 24 hrs by H and E staining based analysis. Format: organism-based. The settings on record: in vivo.
Data set [4] relates to Staphylococcus aureus. The data set can be described thus: Antibacterial activity against Staphylococcus aureus ATCC 29213 at sub-inhibitory concentration measured after 20 passages for 16 to 18 hrs. The class given is functional, organism-based. The settings on record: time 16-18 hrs.
Data set [5] can be described thus: Toxicity in Kunming mouse assessed as survival rate at 80 mg/kg, sc measured after 24 hrs relative to control. The class given is organism-based. The settings on record: in vivo.
Data set [6] has as its system Staphylococcus aureus. The data set can be described thus: Antibacterial activity against methicillin-resistant Staphylococcus aureus infected in Kunming mouse skin infection model assessed as decrease in bacterial load at 8 mg/kg,sc measured after 24 hrs relative to control. The arrangement: scale not given: the % may be the effect or the level left. Format: functional.

For data set [7], the system named is Cell membrane. The data set can be described thus: Induction of cell membrane permeability in methicillin-resistant Staphylococcus aureus clinical isolate MRSA-16 assessed as dead cells (Q1 region) at 4 ug/ml incubated for 2 hrs by SYTO 9 and PI staining based flow cytometry analysis (reference value: 0.00%). The settings on record: dose 4.0 µg/ml. The class given is cell membranes.

The nature of data set [8]: Toxicity in Kunming mouse assessed as effect on spleen at 10 mg/kg, sc measured after 24 hrs by H and E staining based analysis. Format: organism-based. The settings on record: in vivo.
A short description of data set [9]: Toxicity in Kunming mouse assessed as swelling in back of skin at 20 mg/kg, sc measured after 24 hrs. The class given is organism-based. The settings on record: in vivo.
Data set [10] is described as follows: Cytotoxicity against human L02 cells assessed as cell viability at 32 ug/ml by CCK-8 method relative to control. Format: toxicity, cell-based. The settings on record: at 32 µg/mL, read-out: Activity. A general note: Tetrazolium assays rely on reduction of a dye to a coloured formazan, in cell work by metabolically active cells.
Data set [11] is described as follows: Toxicity in Kunming mouse assessed as histopathological abnormalities in liver at 4 to 8 mg/kg, sc measured after 24 hrs by H and E staining based analysis. The settings on record: in vivo, dose 4-8 mg/kg. The class given is organism-based.
Data set [12] concerns Cell membrane. The data set can be described thus: Induction of cell membrane permeability in methicillin-resistant Staphylococcus aureus clinical isolate MRSA-16 assessed as dead cells (Q1 region) at 32 ug/ml incubated for 2 hrs by SYTO 9 and PI staining based flow cytometry analysis (reference value: 0.00%). Format: cell membranes. The settings on record: dose 32.0 µg/ml. For orientation: A flow cytometer gives signals particle by particle.

The subject of data set [13] is Cell membrane. The data set can be described thus: Induction of cytoplasmic membrane depolarization in methicillin-resistant Staphylococcus aureus clinical isolate MRSA-16 assessed as increase in fluorescence intensity at 8 to 32 ug/ml measured every 2 mins for 20 mins by SYTOX green staining based analysis. Format: cell membranes. The settings on record: dose 8-32 µg/ml.

In data set [14] the test system is Staphylococcus aureus. The data set can be described thus: Antibacterial activity against methicillin-resistant Staphylococcus aureus in presence of phosphatidylglycerol. Format: functional, organism-based.
Data set [15] can be described thus: Toxicity in Kunming mouse assessed as histopathological abnormalities in skin at 10 mg/kg, sc measured after 24 hrs by H and E staining based analysis. Format: organism-based. The settings on record: in vivo.
The subject of data set [16] is Staphylococcus aureus. The data set can be described thus: Induction of morphological changes in methicillin-resistant Staphylococcus aureus clinical isolate MRSA-16 assessed as appearance of uneven cell surface at 16 ug/ml incubated for 4 hrs by SEM analysis. The class given is functional, organism-based. The settings on record: dose 16.0 µg/ml.
For data set [17], the system named is Staphylococcus aureus. The data set can be described thus: Antibacterial activity against methicillin-resistant Staphylococcus aureus infected in Kunming mouse skin infection model assessed as reduction in number of bacterial cells at 4 to 8 mg/kg,sc measured after 24 hrs. Format: functional, organism-based. The settings on record: dose 4-8 mg/kg.
For data set [18], the system named is Cell membrane. The data set can be described thus: Induction of cell membrane permeability in methicillin-resistant Staphylococcus aureus clinical isolate MRSA-16 assessed as decrease in intact cells (Q3 region) at 64 ug/ml incubated for 2 hrs by SYTO 9 and PI staining based flow cytometry analysis (reference value: 99.07%). More on the design: scale not given: the % may be the effect or the level left. The settings on record: dose 64.0 µg/ml. Format: cell membranes.

For data set [19], the system named is Staphylococcus aureus. The data set can be described thus: Bactericidal activity against methicillin-resistant Staphylococcus aureus clinical isolate MRSA-16 assessed as bacterial killing measured upto 8 hrs by time kill assay. Format: functional, organism-based.
Data set [20] concerns Cell membrane. The data set can be described thus: Induction of cell membrane permeability in methicillin-resistant Staphylococcus aureus clinical isolate MRSA-16 assessed as increase in damaged cells (Q2 region) at 64 ug/ml incubated for 2 hrs by SYTO 9 and PI staining based flow cytometry analysis (reference value: 0.91%). The class given is cell membranes. The settings on record: dose 64.0 µg/ml.

Data set [21] is described as follows: Toxicity in Kunming mouse assessed as effect on kidney at 10 mg/kg, sc measured after 24 hrs by H and E staining based analysis. The settings on record: in vivo. The class given is organism-based.
Data set [22] relates to Staphylococcus aureus. The data set can be described thus: Antibacterial activity against methicillin-resistant Staphylococcus aureus clinical isolate MRSA-21 measured after 16 to 18 hrs by CLSI method. Format: functional. The settings on record: time 16-18 hrs.
Data set [23] deals with Cell membrane. The data set can be described thus: Disruption of cell membrane integrity in methicillin-resistant Staphylococcus aureus clinical isolate MRSA-16 assessed as increase in red fluorescence at 2 ug/ml incubated for 4 hrs by DAPI and PI staining based confocal microscopy analysis. The class given is cell membranes. The settings on record: dose 2.0 µg/ml.

Activity calls are given as the source filed them.

A word on the MIC: it is the smallest concentration in the dilution series that meets the test's criterion for growth inhibition. Take `CCCC[N+](C)(CCCC)CCCCCOc1ccc(C2CC(=O)c3c(OC)cc(OCCCCC[N+](C)(CCCC)CCCC)c(CC=C(C)C)c3O2)cc1.[I-].[I-]` (stereo not drawn): the Activity entry in data set [1] was “Non-Toxic”; in data set [3] it was “Non-Toxic”; in [6], 99.99%; in data set [7] it was 0.44%; in data set [8] it was “Non-Toxic”; in [9], “Toxic”. Moreover, the Activity entry was “Non-Toxic” in [11]; 99.2% in data set [12]; “Non-Toxic” in data set [15]; 0% in data set [18]; “Dose-Dependent Effect” in data set [19]; 0.02% in data set [20]. Further, the Activity result in data set [21] was “Non-Toxic”. For the same molecule, the minimum inhibitory concentration (MIC) in data set [2] and in [22] was 0.25 µg/mL each time. Moreover, in data set [4], the outcome was inactive. Besides, the survival at 24 h in data set [5] stood at 40%. Further, the viability at 32 ug/ml in data set [10] came out at 72%. For the same molecule, the outcome in [13], in data set [14], in data set [16], in data set [17] and in data set [23] was Active.
